Test results as given in patent publication US10709706B2, “Nuclear transport modulators and uses thereof” (Karyopharm Therapeutics Inc., priority 2015, dated 2020).

What was measured:
Format in all cases: cell-based
Z138 cells = assay: MTT cell proliferation assay, Z138 cells; conditions: Homo sapiens, Z-138, approximately 64-72 hours, 1 nM to 30 μM
Procedure: (§1) The MTT cell proliferation assay was used to study the cytotoxic properties of the compounds. The assay was performed according to the method described by Roche Molecular Biochemicals, with minor modifications. The assay is based on the cleavage of the tetrazolium salt, MTT, in the presence of an electron-coupling reagent. The water-insoluble formazan salt produced must be solubilized in an additional step. Cells grown in a 96-well tissue culture plate were incubated with the MTT solution for approximately 4 hours. After this incubation period, a water-insoluble formazan dye formed. After solubilization, the formazan dye was quantitated using a scanning multi-well spectrophotometer (ELISA reader). […] The cells were seeded at 5,000-10,000 cells in each well of 96-well plate in 100 μL of fresh culture medium and were allowed to attach overnight. The stock solutions of the compounds were diluted in 100 μL cell culture medium to obtain eight concentrations of each test compound, ranging from 1 nM to 30 μM. […] All optical densities were measured at 490 nm using a Vmax Kinetic Microplate Reader (Molecular Devices). In most cases, the assay was performed in duplicate and the results were presented as a mean percent inhibition to the negative control±SE. The following formula was used to calculate the percent of inhibition: Inhibition (%)=(1−(ODo/OD))×100.
(§2) The compounds were tested against Z138, MM1S and 3T3 cells. The Z138 cell line is a mature B-cell acute lymphoblastic leukemia cell line derived from a patient with chronic lymphocytic leukemia. The MM1S cell line was established from the peripheral blood of a human multiple myeloma patient. 3T3 cells are standard fibroblast cells; they were originally isolated from Swiss mouse embryo tissue.

3T3 cells = assay: MTT cell proliferation assay, 3T3 cells; conditions: Mus musculus, NIH3T3, 3T3 fibroblast cells, approximately 64-72 hours, 1 nM to 30 μM
Procedure: as §1, §2

MM1S cells = assay: MTT cell proliferation assay, MM1S cells; conditions: Homo sapiens, MM1.S, MM1S multiple myeloma cells, approximately 64-72 hours, 1 nM to 30 μM
Procedure: as §1, §2

Compound	IC50 (Z138 cells) [µM]	IC50 (3T3 cells) [µM]	IC50 (MM1S cells) [µM]
Cc1noc(C)c1/C(=C\c1ccnc(-c2cc(C(F)(F)F)cc(C(F)(F)F)c2)n1)C(N)=O [Compound 124, (E)-3-(2-(3,5-bis(trifluoromethyl)phenyl)pyrimidin-4-yl)-2-(3,5-dimethylisoxazol-4-yl)acrylamide]	> 30	> 30	> 30
NC(=O)/C(=C/c1ccnc(-c2cc(C(F)(F)F)cc(C(F)(F)F)c2)n1)c1ccc(F)cc1 [Compound 163, (E)-3-(2-(3,5-bis(trifluoromethyl)phenyl)pyrimidin-4-yl)-2-(4-fluorophenyl)acrylamide]	> 30	> 30	> 30
COC(=O)/C(=C/c1cncc(-c2cc(C(F)(F)F)cc(C(F)(F)F)c2)n1)c1cncnc1 [Compound 116, methyl (E)-3-(6-(3,5-bis(trifluoromethyl)phenyl)pyrazin-2-yl)-2-(pyrimidin-5-yl)acrylate]	5 to 30	> 30	5 to 30
NC(=O)/C(=C/c1ccnc(-c2cc(C(F)(F)F)cc(C(F)(F)F)c2)n1)c1ccc(S(=O)(=O)N2CCCC2)cc1 [Compound 155, (E)-3-(2-(3,5-bis(trifluoromethyl)phenyl)pyrimidin-4-yl)-2-(4-(pyrrolidin-1-ylsulfonyl)phenyl)acrylamide]	> 30	> 30	5 to 30
NC(=O)/C(=C/c1ccnc(-c2cc(C(F)(F)F)cc(C(F)(F)F)c2)n1)c1cccc(S(=O)(=O)N2CCCC2)c1 [Compound 162, (E)-3-(2-(3,5-bis(trifluoromethyl)phenyl)pyrimidin-4-yl)-2-(3-(pyrrolidin-1-ylsulfonyl)phenyl)acrylamide]	> 30	> 30	> 30
NC(=O)/C(=C/c1cncc(-c2cc(C(F)(F)F)cc(C(F)(F)F)c2)n1)c1cncnc1 [Compound 114, (E)-3-(6-(3,5-bis(trifluoromethyl)phenyl)pyrazin-2-yl)-2-(pyrimidin-5-yl)acrylamide]	> 30	> 30	> 30
NC(=O)/C(=C/c1ccnc(-c2cc(C(F)(F)F)cc(C(F)(F)F)c2)n1)c1ccsc1Cl [Compound 143, (E)-3-(2-(3,5-bis(trifluoromethyl)phenyl)pyrimidin-4-yl)-2-(2-chlorothiophen-3-yl)acrylamide]	> 30	> 30	> 30
NC(=O)/C(=C/c1ccnc(-c2cc(C(F)(F)F)cc(C(F)(F)F)c2)n1)c1ccc(Cl)c(Cl)c1 [Compound 153, (E)-3-(2-(3,5-bis(trifluoromethyl)phenyl)pyrimidin-4-yl)-2-(3,4-dichlorophenyl)acrylamide]	> 30	> 30	0.1 to 5
NC(=O)/C(=C/c1ccnc(-c2cc(C(F)(F)F)cc(C(F)(F)F)c2)n1)c1ccc(S(=O)(=O)N2CCOCC2)cc1 [Compound 151, (E)-3-(2-(3,5-bis(trifluoromethyl)phenyl)pyrimidin-4-yl)-2-(4-(morpholinosulfonyl)phenyl)acrylamide]	5 to 30	> 30	0.1 to 5
O=C(O)/C(=C/c1ccnc(-c2cc(C(F)(F)F)cc(C(F)(F)F)c2)n1)c1cncnc1 [Compound 111, (E)-3-(2-(3,5-bis(trifluoromethyl)phenyl)pyrimidin-4-yl)-2-(pyrimidin-5-yl)acrylic acid]	> 30	> 30	5 to 30
COC(=O)/C(Br)=C/c1cncc(-c2cc(C(F)(F)F)cc(C(F)(F)F)c2)n1 [Compound 115, methyl (Z)-3-(6-(3,5-bis(trifluoromethyl)phenyl)pyrazin-2-yl)-2-bromoacrylate]	0.1 to 5	5 to 30	0.1 to 5
CCOC(=O)/C(Br)=C/c1cncc(-c2cc(C(F)(F)F)cc(C(F)(F)F)c2)n1 [Compound 102, ethyl (Z)-3-(6-(3,5-bis(trifluoromethyl)phenyl)pyrazin-2-yl)-2-bromoacrylate]	0.1 to 5	> 30	0.1 to 5
NC(=O)/C(=C/c1ccnc(-c2cc(C(F)(F)F)cc(C(F)(F)F)c2)n1)c1cncc(Cl)c1 [Compound 147, (E)-3-(2-(3,5-bis(trifluoromethyl)phenyl)pyrimidin-4-yl)-2-(5-chloropyridin-3-yl)acrylamide]	0.1 to 5	> 30	< 0.1
NC(=O)/C(=C/c1ccnc(-c2cc(C(F)(F)F)cc(C(F)(F)F)c2)n1)c1cncc(F)c1 [Compound 121, (E)-3-(2-(3,5-bis(trifluoromethyl)phenyl)pyrimidin-4-yl)-2-(5-fluoropyridin-3-yl)acrylamide]	> 30	> 30	0.1 to 5
NC(=O)/C(=C/c1ccnc(-c2cc(C(F)(F)F)cc(C(F)(F)F)c2)n1)c1cc2ccccc2s1 [Compound 137, (Z)-2-(benzo[b]thiophen-2-yl)-3-(2-(3,5-bis(trifluoromethyl)phenyl)pyrimidin-4-yl)acrylamide]	0.1 to 5	> 30	0.1 to 5
NC(=O)/C(=C/c1ccnc(-c2cc(C(F)(F)F)cc(C(F)(F)F)c2)n1)c1ccc(F)cc1F [Compound 132, (E)-3-(2-(3,5-bis(trifluoromethyl)phenyl)pyrimidin-4-yl)-2-(2,4-difluorophenyl)acrylamide]	> 30	> 30	> 30
NC(=O)/C(=C/c1ccnc(-c2cc(C(F)(F)F)cc(C(F)(F)F)c2)n1)c1ccc(OC(F)(F)F)cc1 [Compound 134, (E)-3-(2-(3,5-bis(trifluoromethyl)phenyl)pyrimidin-4-yl)-2-(4-(trifluoromethoxy)phenyl)acrylamide]	> 30	> 30	> 30
NC(=O)/C(=C/c1ccnc(-c2cc(C(F)(F)F)cc(C(F)(F)F)c2)n1)c1ccc(-c2cccnc2)cc1 [Compound 142, (E)-3-(2-(3,5-bis(trifluoromethyl)phenyl)pyrimidin-4-yl)-2-(4-(pyridin-3-yl)phenyl)acrylamide]	> 30	> 30	> 30
NC(=O)/C(=C/c1ccnc(-c2cc(C(F)(F)F)cc(C(F)(F)F)c2)n1)c1cccc(S(=O)(=O)N2CCCCC2)c1 [Compound 167, (E)-3-(2-(3,5-bis(trifluoromethyl)phenyl)pyrimidin-4-yl)-2-(3-(piperidin-1-ylsulfonyl)phenyl)acrylamide]	> 30	> 30	> 30
O=C(O)/C(=C/c1nccc(-c2cc(C(F)(F)F)cc(C(F)(F)F)c2)n1)c1cncnc1 [Compound 109, (E)-3-(4-(3,5-bis(trifluoromethyl)phenyl)pyrimidin-2-yl)-2-(pyrimidin-5-yl)acrylic acid]	> 30	> 30	> 30
NC(=O)/C(=C/c1ccnc(-c2cc(C(F)(F)F)cc(C(F)(F)F)c2)n1)c1cccc(S(=O)(=O)N2CC(F)C2)c1 [Compound 145, (E)-3-(2-(3,5-bis(trifluoromethyl)phenyl)pyrimidin-4-yl)-2-(3-((3-fluoroazetidin-1-yl)sulfonyl)phenyl)acrylamide]	> 30	> 30	> 30
NC(=O)/C(=C/c1ccnc(-c2cc(C(F)(F)F)cc(C(F)(F)F)c2)n1)c1cccc(S(=O)(=O)N2CCC2)c1 [Compound 166, (E)-2-(3-(azetidin-1-ylsulfonyl)phenyl)-3-(2-(3,5-bis(trifluoromethyl)phenyl)pyrimidin-4-yl)acrylamide]	> 30	> 30	> 30
CN1CCN(S(=O)(=O)c2cccc(/C(=C\c3ccnc(-c4cc(C(F)(F)F)cc(C(F)(F)F)c4)n3)C(N)=O)c2)CC1 [Compound 146, (E)-3-(2-(3,5-bis(trifluoromethyl)phenyl)pyrimidin-4-yl)-2-(3-((4-methylpiperazin-1-yl)sulfonyl)phenyl)acrylamide]	> 30	> 30	> 30
NC(=O)/C(=C/c1ccnc(-c2cc(C(F)(F)F)cc(C(F)(F)F)c2)n1)c1cncnc1 [Compound 112, (E)-3-(2-(3,5-bis(trifluoromethyl)phenyl)pyrimidin-4-yl)-2-(pyrimidin-5-yl)acrylamide]	0.1 to 5	> 30	0.1 to 5
NC(=O)/C(=C/c1ccnc(-c2cc(C(F)(F)F)cc(C(F)(F)F)c2)n1)c1ccc(S(=O)(=O)NC2CC2)cc1 [Compound 128, (E)-3-(2-(3,5-bis(trifluoromethyl)phenyl)pyrimidin-4-yl)-2-(4-(N-cyclopropylsulfamoyl)phenyl)acrylamide]	5 to 30	> 30	5 to 30
O=C(O)/C(=C/c1cncc(-c2cc(C(F)(F)F)cc(C(F)(F)F)c2)n1)c1cncnc1 [Compound 117, (E)-3-(6-(3,5-bis(trifluoromethyl)phenyl)pyrazin-2-yl)-2-(pyrimidin-5-yl)acrylic acid]	> 30	> 30	> 30
